6 compounds from ChEMBL document CHEMBL4813957, “Antitubercular properties of thiazolidin-4-ones - A review” (Eur J Med Chem, 2021) can be followed below.

Holding throughout (format): functional
In test [1] the test system is Mycobacterium tuberculosis variant bovis BCG. The test is described as follows: Antimycobacterial activity against Mycobacterium bovis BCG ATCC 35734 measured on 12th day by nitrate reductase assay. The settings on record: ATCC 35734, 288 h, time 12 day.
In test [2] the test system is Mycobacterium tuberculosis. Briefly: Antimycobacterial activity against multidrug resistant Mycobacterium tuberculosis measured up to 2 weeks. Particulars: 336 h, time weeks <=2.
The test system of test [3] is Mycobacterium tuberculosis. The test is described as follows: Antimycobacterial activity against ethambutol/pyrazinamide/kanamycin/streptomycin/ofloxacin/moxifloxacin/levofloxacin resistant Mycobacterium tuberculosis measured up to 2 weeks. Particulars: 336 h, time weeks <=2.
Test [4] has as its system Mycobacterium tuberculosis. The test is described as follows: Antimycobacterial activity against extensively drug resistant Mycobacterium tuberculosis measured up to 2 weeks. The settings on record: 336 h, time weeks <=2.
Test [5] relates to Mycobacterium tuberculosis variant bovis BCG. The test is described as follows: Antimycobacterial activity against Mycobacterium bovis BCG ATCC35743 by nitrate reductase assay.

≈ marks a conversion by molar mass, not a printed value.

The term MIC denotes the lowest concentration that inhibits growth of the organism. Read a low MIC as greater potency. The compound `O=C1CSC(c2ccc(OCc3cc4ccccc4n4nnnc34)cc2)N1c1ccccc1` (stereo not drawn) yielded an MIC in test [1] of 9.13 µg/mL (≈ 20.1 µM).

In test [1], `CCOc1ccc(N2C(=O)CSC2c2ccc(OCc3cc4ccccc4n4nnnc34)cc2)cc1` (stereo not drawn) showed an MIC of 7.09 µg/mL (≈ 14.2 µM). The MIC values of the last two compounds are within 1.5-fold of each other.

With `O=C(O)CCCCCC1NC(=O)CS1` (stereo not drawn), the figures for the MIC in test [2], in test [3] and in test [4] were 0.6 µM (≈ 0.13 µg/mL), 0.2 µM (≈ 0.0435 µg/mL) and 0.096 µM (≈ 0.0209 µg/mL), respectively.

For `O=C1CSC(c2ccc(OCc3cc4ccccc4n4nnnc34)cc2)N1c1ccc([N+](=O)[O-])cc1` (stereo not drawn), the MIC in test [1] was found to be 3.8 µg/mL (≈ 7.62 µM).

A word on the IC90: it is the point of the concentration-response curve where the effect stands at 90%. Turning to `O=C1NC(=S)S/C1=C\c1ccc([N+](=O)[O-])cc1`, the IC90 in test [5] worked out at 25.7 µg/mL (≈ 96.5 µM).

`NC(=O)c1cnccn1` [PYRAZINAMIDE] gave an MIC in test [1] of 20 µg/mL (≈ 162 µM).
